Test results published in PubChem BioAssay AID1996.
Values after ≈ are worked out from the molar mass of the structure shown.

Settings: buffer; pH 7.4; 200.0 µM

| SMILES | solubility kinetic [µg/mL] |
| --- | --- |
| COc1cccc(NC(=O)CN(C)C(=O)[C@@H]2CCCN2C(=O)c2cccs2)c1 | > 60.2 |
| Cn1cc(C(=O)OCC(=O)Nc2ccccc2)c2ccccc21 | 7.8 (≈ 25.3 µM) |
| CCC(C)(C)NC(=O)CCCSc1nc2ccccc2[nH]1 | 28.7 (≈ 94 µM) |
| COC(=O)c1cc(C)sc1NC(=O)c1ccco1 | < 0.6 |
| CC(C)(C#CC(O)(c1ccccc1)c1ccccc1)N1CCCCC1 | 46.3 (≈ 139 µM) |
| O=C(c1ccccc1Cl)N1CCC(n2cccc2)CC1 | 42.2 (≈ 146 µM) |
| CC(C)CNC(C)C(=O)Nc1ccc(S(N)(=O)=O)cc1 (configuration not stated) | > 44.9 |
| CC1CCCCN1C(=S)NC(=O)c1cccs1 (configuration not stated) | > 40.3 |
| O=C(CNC(=O)c1ccccc1F)NCc1cccnc1 | > 43.1 |
| C=CCOc1ccccc1CNc1ccc2[nH]c(=O)[nH]c2c1 | > 44.3 |
| CN1c2ccsc2C(=O)/C(=C\Nc2cccc(C(F)(F)F)c2)S1(=O)=O | < 0.4 |
| Cc1ccc(NC(=S)NCc2ccccc2)c(C)c1 | 39.2 (≈ 145 µM) |
| CC1CCCCN1C(=O)C1COc2ccccc2O1 (configuration not stated) | 35.5 (≈ 136 µM) |
| Cc1cccc(NC(=O)c2ccc(S(=O)(=O)N3CCCC3)cc2)c1C | 2 (≈ 5.58 µM) |
| CCCC(=O)Nc1c(-c2cccc(OC)c2)c(=O)c2ccccc2n1C | > 52.6 |
| CCOC(=O)CC(=O)NC(CC(=O)OC)c1ccc(Br)cc1 (configuration not stated) | 45.7 (≈ 123 µM) |
| O=C(COC(=O)COc1ccccc1)NCc1ccco1 | > 43.4 |
| COc1cc(NC(=O)c2ccccc2)c(OC)cc1NC(=O)Cc1ccc(C)cc1 | < 0.4 |
| OC(CNCc1cccs1)c1ccccc1 (configuration not stated) | > 35 |
| CCC(NC(=O)Cc1cccs1)c1ccccc1 (configuration not stated) | > 38.9 |
| CC(C)CC(=O)N1CCN(Cc2ccc(Br)cc2)CC1 | 28.1 (≈ 82.8 µM) |

| SMILES | solubility kinetic [µg/mL] |
| --- | --- |
| CCCC(=O)N1CCN(c2nc3ccc(Cl)cc3s2)CC1 | 46.3 (≈ 143 µM) |
| Cc1cnc(C(=O)OCC(=O)Nc2cc(Cl)ccc2C#N)cn1 | > 49.6 |
| CN(Cc1cccs1)C(=O)CNC(=O)c1ccco1 | > 41.7 |
| O=c1c2ccccc2nc(Cc2cccc([N+](=O)[O-])c2)n1-c1ccc(O)cc1 | 47.8 (≈ 128 µM) |
| CCCCCCCCCCCCCCCC[N+](C)(C)CC.[Br-] | 34.5 |
| O=C(NC(=S)Nc1cccc2cc(O)ccc12)c1ccco1 | 13.2 (≈ 42.3 µM) |
| Cl.c1cnc(N2CCNCC2)nc1 | > 35.6 |
| O=c1c2ccccc2nc(-c2ccccc2)n1-c1ccccc1 | 43.6 (≈ 146 µM) |
| C/C(=N\O)C(C)(C)Nc1ccc(Br)cc1 | > 40.7 |
| CC(=O)Oc1ccc(-c2cccc(C(=O)N3CCCCC3)c2)cc1 | 40.8 (≈ 126 µM) |
| CC(C)c1ccc(NC(=O)NCc2ccc3c(c2)OCO3)cc1 | < 0.3 |
| O=C(CCc1ccc(S(=O)(=O)N2CCOCC2)cc1)Nc1ccc(F)c(F)c1F | 44.6 (≈ 104 µM) |
| O=C(COc1ccc2ccc(=O)oc2c1)NC1CCCC1 | > 43.1 |
| O=C(c1ccco1)N1CCN(C(=S)NC2CC3CCC2C3)CC1 (configuration not stated) | 46.8 (≈ 140 µM) |
| CCCOc1ccc(CN2CCOCC2)cc1OC.Cl | > 45.3 |
| Cc1sc(N)nc1C12CC3CC(CC(C3)C1)C2 | 3.3 (≈ 13.3 µM) |
| CN[C@@H]1CC[C@H](c2ccc(Cl)c(Cl)c2)c2ccccc21 | 28.8 (≈ 94 µM) |
| Cc1cccc(CC(=O)NC2CCN(C)CC2)c1 | > 37 |
| c1ccc(-n2cnc3ccccc32)cc1 | 24.6 (≈ 127 µM) |
| O=C(COC(=O)CNC(=O)c1ccccc1)NC(=O)NC1CCCCC1 | > 54.2 |
| COc1ccc2cc(S(=O)(=O)N3CCCC(C)C3)ccc2c1 (configuration not stated) | < 0.7 |

| SMILES | solubility kinetic [µg/mL] |
| --- | --- |
| CC(C)N(Cc1ccccc1)C(=O)CN1C(=O)c2ccccc2C1=O | > 50.5 |
| COc1cccc(C2Nc3ccccc3C(=O)N2Cc2ccccc2)c1 (configuration not stated) | 17.3 (≈ 50.2 µM) |
| O=C1/C(=C/c2cccnc2)CC/C1=C\c1cccnc1 | 17.1 (≈ 65.2 µM) |
| CC(CC(=O)N1CCN(C(=O)c2ccccc2)CC1)c1ccccc1 (configuration not stated) | > 50.5 |
| CCN(Cc1ccccc1)C(=O)COC(=O)[C@@H]1CCCN1C(=O)c1cccs1 | > 60.1 |
| O=C(c1cccc(F)c1)N1CCCC(C(=O)N2CCCCC2)C1 (configuration not stated) | > 47.8 |
| O=C(NCc1ccco1)c1cnn2cccnc12 | > 36.3 |
| CCOC(=O)C(CC)Sc1cc(C)nc2ccc(OC)cc12 (configuration not stated) | 34.8 (≈ 109 µM) |
| C/C(=N/OC(=O)c1ccc(C(F)(F)F)cc1)c1oc(C)nc1C | 8.1 (≈ 24.8 µM) |
| CCc1nonc1NC(=O)c1oc2ccc(C)cc2c1C | < 0.2 |
| CCN(C(=O)CSc1nc2ccccc2[nH]1)C1CCS(=O)(=O)C1 (configuration not stated) | > 53 |
| Cc1ccc(-c2nc(=S)c3c(n2Cc2cccnc2)CC(C)(C)OC3)cc1 | > 56.6 |
| CCc1cc(C(=O)c2ccc(OC)cc2)c(N)s1 | 20.9 (≈ 80 µM) |
| O=C(CN1C(=O)c2ccccc2C1=O)Nc1ccccc1 | 18.9 (≈ 67.4 µM) |
| CN(Cc1nc(-c2ccc(Cl)cc2)no1)C(=O)c1ccco1 | 47.5 (≈ 149 µM) |
| COC(=O)Cc1c(O)ccn(C2CC2)c1=O | > 33.5 |
| Cc1ccc(NS(=O)(=O)c2ccc3c(c2)NC(=O)CO3)cc1 | 10.7 (≈ 33.6 µM) |
| COc1ccc(/C(N)=N/OC(=O)CC2CCCCC2)cc1 | 2.8 (≈ 9.64 µM) |
| Cc1cc(=O)n(-c2ccc(Cl)cc2)c(=O)[nH]1 | > 35.5 |

Second part, the molecule after the results:

| solubility kinetic [µg/mL] | SMILES |
| --- | --- |
| > 28.4 | CCN1C(=O)CCCc2ccccc21 |
| 44 (≈ 135 µM) | O=C(CSC1=NCCN1)NC(c1ccccc1)c1ccccc1 |
| 11.2 (≈ 38.5 µM) | Cn1cnc([N+](=O)[O-])c1C(=O)Nc1cccc([N+](=O)[O-])c1 |
| > 39.8 | O=C(COC(=O)c1ccc(F)cc1F)c1ccc[nH]1 |
| 32.6 (≈ 113 µM) | CC(Oc1ccc(C#N)cc1)C(=O)c1ccc(F)c(F)c1 (configuration not stated) |
| 0.5 (≈ 1.6 µM) | CCC(C)c1ccc(NC(=O)c2[nH]c(C)c(C(C)=O)c2C)cc1 (configuration not stated) |
| > 33.5 | S=C(c1ccccc1)N1CCSCC1 |
| > 43.6 | O=C1CSC(c2cccnc2)N1c1ccc(Cl)cc1 (configuration not stated) |
| > 41.3 | CCOCCCNc1ncnc2c1nc1n2CCCC1 |
| > 40.4 | CC1CCCCN1C(=O)c1cc2ccccc2cc1O (configuration not stated) |
| > 39.4 | O=S(=O)(c1ccc(Cl)nc1)N1CCOCC1 |
| 47.6 (≈ 144 µM) | CN(c1ccccc1)c1nc(N)c([N+](=O)[O-])c(N2CCOCC2)n1 |
| 8.4 (≈ 27.4 µM) | Cc1cc(/C=C2/NC(=O)NC2=O)c(C)n1-c1ccc(C#N)cc1 |
| 1.1 (≈ 3.69 µM) | Cc1cccc(NC(=S)NC(=O)Cc2ccccc2)c1C |
| > 47.4 | CN(C)NC(=O)c1csnc1-c1c(Cl)cccc1Cl |
| 49.3 (≈ 150 µM) | O=C(CCc1nc(-c2ccccc2Cl)no1)Nc1cccnc1 |
| 45.8 (≈ 144 µM) | Cc1cc(C)nc(SCC(=O)Nc2ccc3c(c2)OCO3)n1 |
| 48.8 (≈ 138 µM) | CNS(=O)(=O)c1cccc(C(=O)NCC(C)(C)N2CCCCC2)c1 |
| 31.3 (≈ 131 µM) | O=C(NCc1cccc(Cl)c1)C1CCCO1 (configuration not stated) |
| 6.9 (≈ 24.3 µM) | O=C(Nc1nccs1)c1ccc(Cl)c([N+](=O)[O-])c1 |
| 44.2 (≈ 138 µM) | Cc1csc(NC(=O)[C@@H]2CCCN2C(=O)c2cccs2)n1 |
| 4.3 (≈ 18 µM) | CCOc1cc([N+](=O)[O-])c2nc(N)sc2c1 |
| > 52.4 | CCNC(=O)COC(=O)c1cc(-c2ccccc2)nn1-c1ccccc1 |
| > 33.2 | Cc1cc(NC(=O)c2ccco2)sc1C |
| 0.8 (≈ 2.32 µM) | CC(=O)Nc1ccc(NC(=O)C(c2ccccc2)c2ccccc2)cc1 |
| < 0.3 | COc1cccc(Nc2c(Nc3cccc(OC)c3)c(=O)c2=O)c1 |
